How the values were obtained:
Assay in all cases: relative viability (nuclei count vs DMSO), 5 days (fraction); higher = more cells survive
NCI-H1734 = system: NCI-H1734
Summary of the method: (§1)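 A single step with final 0.05% Triton X-100, 1% formaldehyde and 1 ug/ml Hoechst fixed the cells and stained nuclei 5 days after treatment. Lung cancer cell lines in 1536-well plates had been treated by pin tool the day after seeding with one drug alone or a fixed anchor-drug dose plus five library-drug doses (not always all listed) in √10 steps, and nuclei were counted on 4× images. Relative viability is the ratio of nuclei in treated wells to nuclei in vehicle wells, taken as the median of duplicate plates.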

BEN = system: BEN
Summary of the method: as §1

LK-2 = system: LK-2
Summary of the method: as §1

COR-L 105 = system: COR-L 105
Summary of the method: as §1

NCI-H358 = system: NCI-H358
Summary of the method: as §1

NCI-H727 = system: NCI-H727
Summary of the method: as §1

NCI-H1792 = system: NCI-H1792
Summary of the method: as §1

SK-MES-1 = system: SK-MES-1
Summary of the method: as §1

LOU-NH91 = system: LOU-NH91
Summary of the method: as §1

NCI-H2126 = system: NCI-H2126
Summary of the method: as §1

EMC-BAC-2 = system: EMC-BAC-2
Summary of the method: as §1

NCI-H2087 = system: NCI-H2087
Summary of the method: as §1

EKVX = system: EKVX
Summary of the method: as §1

HCC-78 = system: HCC-78
Summary of the method: as §1

EPLC-272H = system: EPLC-272H
Summary of the method: as §1

LCLC-97TM1 = system: LCLC-97TM1
Summary of the method: as §1

RERF-LC-KJ = system: RERF-LC-KJ
Summary of the method: as §1

LU99A = system: LU99A
Summary of the method: as §1

NCI-H1944 = system: NCI-H1944
Summary of the method: as §1

SW 1573 = system: SW 1573
Summary of the method: as §1

HCC-827 = system: HCC-827
Summary of the method: as §1

NCI-H1650 = system: NCI-H1650
Summary of the method: as §1

ChaGo-K-1 = system: ChaGo-K-1
Summary of the method: as §1

With O=c1[nH]c2ccccc2n1C1CCN(CCCC(c2ccc(F)cc2)c2ccc(F)cc2)CC1 [Pimozide] + C[C@@H](Oc1cc(-c2cnn(C3CCNCC3)c2)cnc1N)c1c(Cl)ccc(F)c1Cl [Crizotinib] (partner 1 µM) the relative viability (NCI-H1734; first compound 0.08 µM) was 0.646, the relative viability (NCI-H1734; first compound 0.253 µM) was 0.633 and the relative viability (NCI-H1734; first compound 0.8 µM) was 0.716. For the same compound, the relative viability (NCI-H1734; first compound 2.53 µM) was 0.609, the relative viability (NCI-H1734; first compound 8 µM) was 0.722 and the relative viability (BEN; first compound 0.08 µM) was 1.01. It also gave a relative viability (BEN; first compound 0.253 µM) of 0.913, a relative viability (BEN; first compound 0.8 µM) of 0.846 and a relative viability (BEN; first compound 2.53 µM) of 0.697. For the same compound, the relative viability (BEN; first compound 8 µM) was 0.969, the relative viability (LK-2; first compound 0.08 µM) was 0.225 and the relative viability (LK-2; first compound 0.253 µM) was 0.224. For the same compound, the relative viability (LK-2; first compound 0.8 µM) was 0.243, the relative viability (LK-2; first compound 2.53 µM) was 0.225 and the relative viability (LK-2; first compound 8 µM) was 0.234. It also gave a relative viability (COR-L 105; first compound 0.253 µM) of 0.831, a relative viability (COR-L 105; first compound 0.8 µM) of 0.691 and a relative viability (COR-L 105; first compound 2.53 µM) of 0.645. The relative viability (COR-L 105; first compound 8 µM) was 0.555, the relative viability (NCI-H358; first compound 0.08 µM) was 0.573 and the relative viability (NCI-H358; first compound 0.253 µM) was 0.519. The relative viability (NCI-H358; first compound 0.8 µM) was 0.448, the relative viability (NCI-H358; first compound 2.53 µM) was 0.335 and the relative viability (NCI-H358; first compound 8 µM) was 0.546. The relative viability (NCI-H727; first compound 0.08 µM) was 0.958, the relative viability (NCI-H727; first compound 0.253 µM) was 0.791 and the relative viability (NCI-H727; first compound 0.8 µM) was 0.855. It also gave a relative viability (NCI-H727; first compound 2.53 µM) of 0.765, a relative viability (NCI-H727; first compound 8 µM) of 0.756 and a relative viability (NCI-H1792; first compound 0.08 µM) of 0.95. For the same compound, the relative viability (NCI-H1792; first compound 0.253 µM) was 0.944, the relative viability (NCI-H1792; first compound 0.8 µM) was 0.937 and the relative viability (NCI-H1792; first compound 2.53 µM) was 0.937. It also gave a relative viability (NCI-H1792; first compound 8 µM) of 0.971, a relative viability (SK-MES-1; first compound 0.08 µM) of 0.882 and a relative viability (SK-MES-1; first compound 0.253 µM) of 0.928. The relative viability (SK-MES-1; first compound 0.8 µM) was 0.957, the relative viability (SK-MES-1; first compound 2.53 µM) was 1.01 and the relative viability (SK-MES-1; first compound 8 µM) was 0.901. It also gave a relative viability (LOU-NH91; first compound 0.08 µM) of 0.52, a relative viability (LOU-NH91; first compound 0.253 µM) of 0.733 and a relative viability (LOU-NH91; first compound 0.8 µM) of 0.73. The relative viability (LOU-NH91; first compound 2.53 µM) was 0.759, the relative viability (LOU-NH91; first compound 8 µM) was 0.581 and the relative viability (NCI-H2126; first compound 0.08 µM) was 1.06. It also gave a relative viability (NCI-H2126; first compound 0.253 µM) of 0.976, a relative viability (NCI-H2126; first compound 0.8 µM) of 0.976 and a relative viability (NCI-H2126; first compound 2.53 µM) of 1.02. It also gave a relative viability (NCI-H2126; first compound 8 µM) of 1, a relative viability (EMC-BAC-2; first compound 0.08 µM) of 0.752 and a relative viability (EMC-BAC-2; first compound 0.253 µM) of 0.79. It also gave a relative viability (EMC-BAC-2; first compound 0.8 µM) of 0.691, a relative viability (EMC-BAC-2; first compound 2.53 µM) of 0.616 and a relative viability (EMC-BAC-2; first compound 8 µM) of 0.691. The relative viability (NCI-H2087; first compound 0.08 µM) was 0.856, the relative viability (NCI-H2087; first compound 0.253 µM) was 0.721 and the relative viability (NCI-H2087; first compound 0.8 µM) was 0.604. It also gave a relative viability (NCI-H2087; first compound 2.53 µM) of 0.826, a relative viability (NCI-H2087; first compound 8 µM) of 0.889 and a relative viability (EKVX; first compound 0.253 µM) of 0.949. The relative viability (EKVX; first compound 0.8 µM) was 0.895, the relative viability (EKVX; first compound 2.53 µM) was 0.865 and the relative viability (EKVX; first compound 8 µM) was 0.876. It also gave a relative viability (HCC-78; first compound 0.08 µM) of 0.263, a relative viability (HCC-78; first compound 0.253 µM) of 0.339 and a relative viability (HCC-78; first compound 0.8 µM) of 0.333. For the same compound, the relative viability (HCC-78; first compound 2.53 µM) was 0.354, the relative viability (HCC-78; first compound 8 µM) was 0.315 and the relative viability (EPLC-272H; first compound 0.08 µM) was 0.789. The relative viability (EPLC-272H; first compound 0.253 µM) was 0.686, the relative viability (EPLC-272H; first compound 0.8 µM) was 0.908 and the relative viability (EPLC-272H; first compound 2.53 µM) was 0.904. The relative viability (EPLC-272H; first compound 8 µM) was 0.803, the relative viability (LCLC-97TM1; first compound 0.08 µM) was 0.337 and the relative viability (LCLC-97TM1; first compound 0.253 µM) was 0.356. It also gave a relative viability (LCLC-97TM1; first compound 0.8 µM) of 0.296, a relative viability (LCLC-97TM1; first compound 2.53 µM) of 0.424 and a relative viability (LCLC-97TM1; first compound 8 µM) of 0.413. The relative viability (RERF-LC-KJ; first compound 0.08 µM) was 0.809, the relative viability (RERF-LC-KJ; first compound 0.253 µM) was 0.815 and the relative viability (RERF-LC-KJ; first compound 0.8 µM) was 0.764. The relative viability (RERF-LC-KJ; first compound 2.53 µM) was 0.581, the relative viability (RERF-LC-KJ; first compound 8 µM) was 0.705 and the relative viability (LU99A; first compound 0.08 µM) was 0.497. It also gave a relative viability (LU99A; first compound 0.253 µM) of 0.521, a relative viability (LU99A; first compound 0.8 µM) of 0.548 and a relative viability (LU99A; first compound 2.53 µM) of 0.612. For the same compound, the relative viability (LU99A; first compound 8 µM) was 0.61, the relative viability (NCI-H1944; first compound 0.08 µM) was 0.992 and the relative viability (NCI-H1944; first compound 0.253 µM) was 1.03. For the same compound, the relative viability (NCI-H1944; first compound 0.8 µM) was 1.05, the relative viability (NCI-H1944; first compound 2.53 µM) was 0.967 and the relative viability (NCI-H1944; first compound 8 µM) was 0.939. It also gave a relative viability (SW 1573; first compound 0.08 µM) of 0.797, a relative viability (SW 1573; first compound 0.253 µM) of 0.759 and a relative viability (SW 1573; first compound 0.8 µM) of 0.803. It also gave a relative viability (SW 1573; first compound 2.53 µM) of 0.805, a relative viability (SW 1573; first compound 8 µM) of 0.779 and a relative viability (HCC-827; first compound 0.253 µM) of 0.887. It also gave a relative viability (HCC-827; first compound 0.8 µM) of 0.826, a relative viability (HCC-827; first compound 2.53 µM) of 0.936 and a relative viability (HCC-827; first compound 8 µM) of 0.885. The relative viability (NCI-H1650; first compound 0.08 µM) was 0.923, the relative viability (NCI-H1650; first compound 0.253 µM) was 0.946 and the relative viability (NCI-H1650; first compound 0.8 µM) was 0.791. The relative viability (NCI-H1650; first compound 2.53 µM) was 0.891, the relative viability (NCI-H1650; first compound 8 µM) was 0.835 and the relative viability (ChaGo-K-1; first compound 0.08 µM) was 1.18. It also gave a relative viability (ChaGo-K-1; first compound 0.253 µM) of 1.04, a relative viability (ChaGo-K-1; first compound 0.8 µM) of 1.15 and a relative viability (ChaGo-K-1; first compound 2.53 µM) of 1.02. For the same compound, the relative viability (ChaGo-K-1; first compound 8 µM) was 0.944.

From the supplement of paper PMC10307832
